Laboratory results published in PMC5829251, “NAD^+ analog reveals PARP-1 substrate-blocking mechanism and allosteric communication from catalytic center to DNA-binding domains” (Nature Communications, 2018).

Assays:
PARP-1 CAT ΔHD = molecular target: T1, PARP-1 CAT ΔHD (Homo sapiens, UniProt P09874); assay: DSF, PARP-1 CAT ΔHD; format: binding; settings: for TM: CAT ΔHD 5 μM, in °C (unit assumed)
T1 construct: a pET28 construct coding for PARP-1 residues 661-1011; made in house; host or cells: E. coli
Protocol: DSF experiments were performed as described, [13] using 5 µM protein, 2.5 µM DNA when indicated and various concentrations of compound (BAD, carba-NAD^+, benzamide, and ADP-ribose) as indicated in Fig. 1 and Fig. 3. Experiments were performed on a Roche LightCycler 480 RT-PCR. Reactions including DNA were performed with a 26- or 28-base pair (bp) unphosphorylated oligonucleotide for PARP-1, a 28-bp 5´-phosphorylated (5´P) oligonucleotide for PARP-2, and a 47-bp oligonucleotide including a central 5´P nick for PARP-3^13 in the following buffer: 25 mM Hepes pH 8.0, 150 mM NaCl, 1 mM EDTA, and 0.1 mM TCEP. Reactions with PARP-3 were conducted at lower ionic strength to allow binding to DNA as described (25 mM Hepes pH 8.0, 50 mM NaCl, 1 mM EDTA and 0.1 mM TCEP)[13]. ΔTM values were calculated by subtracting the TM determined for the protein in the absence of compound from the TM determined in the presence of compound. Experiments were performed in triplicate and a Boltzmann sigmoid was fit to the data to determine the TM values (KaleidaGraph).

PARP-1 WT = molecular target: T2, PARP-1 WT (Homo sapiens, UniProt P09874); assay: Fluorescence polarization DNA affinity measurement assay; format: binding; settings: presence versus absence of compound
T2 construct: Full-length PARP-1 WT (residues 1–1014) was cloned in pET28 vector; made in house; host or cells: E. coli
Protocol: For the DNA competition assay, 40 nM PARP-1 WT, or PARP-1 ΔHD, was incubated with 20 nM of dumbbell DNA with a central nick carrying an internal fluorescent FAM group (5′-GCT GAG C/FAMT/T CTGGTGAAGCTCAGCTCGCGGCAGCTGGTGCTGCCGCGA-3′) for 30 min at RT in 12 mM Hepes pH 8.0, 60 mM KCl, 8 mM MgCl2, 4% glycerol, 5.7 mM beta-mercaptoethanol, 0.05 mg per ml bovine serm albumin with or without BAD or benzamide (500 μM). A competitor unlabeled DNA of the same sequence was added at 100 nM and FP was measured over time on a VictorV plate reader (Perkin Elmer). For the DNA affinity measurement assay, increasing concentrations of PARP-1 WT were incubated for 30 min at RT with 5 nM of dumbbell DNA probe carrying a nick (described above) in the absence or presence of BAD or benzamide (100 μM) in the following buffer: 12 mM Hepes pH 8.0, 250 mM NaCl, 4% glycerol, 5.7 mM beta-mercaptoethanol, 0.05 mg per ml bovine serum albumin.

PARP-1 = molecular target: T3, PARP-1 (Homo sapiens, UniProt P09874); assay: HXMS analysis of PARP-1 dynamics; settings: for HX of an ART active site peptide (a.a. 901–917): 10^4 s time point, PARP-1 alone or in complex with DNA
T3 construct: Full-length PARP-1 WT (residues 1–1014) was cloned in pET28 vector; made in house; host or cells: E. coli
Protocol: Deuterium on-exchange was carried out at RT by mixing 5 µL of each sample (8 µM concentration) with 15 µL of deuterium on-exchange buffer (10 mM HEPES, pD 7.0, 150 mM NaCl, in D2O) yielding a final D2O concentration of 75%. pD values for deuterium-based buffers were calculated as pD = pH + 0.41[38]. Upon mixing with on-exchange buffer, the amide protons will be replaced over time with deuterons yielding an increased peptide mass. To quench the deuterium exchange reaction, the sample (20 µl) was mixed with 30 µl of ice-cold quench buffer (1.66 M guanidine hydrochloride, 10% glycerol, and 0.8% formic acid, for a final pH of 2.4–2.5) and rapidly frozen in liquid nitrogen. For the MS analysis, each sample (50 µL) was melted on ice and loaded onto an in-house packed pepsin column for digestion. Pepsin (Sigma) was coupled to POROS 20 AL support (Applied Biosystems), and the immobilized pepsin was packed into a column housing (2 mm × 2 cm, Upchurch). Pepsin-digested peptides were captured on TARGA C8 5 µm Piccolo HPLC column (1.0 × 5.0 mm, Higgins Analytical) and eluted through an analytical C18 HPLC column (0.3 × 75 mm, Agilent) by a shaped 12–100% buffer B gradient at 6 µL per min (Buffer A: 0.1% formic acid; Buffer B: 0.1% formic acid, 99.9% acetonitrile). The effluent was electrosprayed into the mass spectrometer. Non-deuterated (ND) PARP-1 samples were prepared in 10 mM HEPES, pH 7.0, 150 mM NaCl buffer, and mixed with the quench buffer to mimic the samples from on-exchange reaction. Peptides of ND samples were analyzed in tandem MS (LTQ Orbitrap XL, Thermo Fisher Scientific). We analyzed MS/MS data collected from these samples to identify potential PARP-1 peptides using SEQUEST (Bioworks v3.3.1, Thermo Fisher Scientific) with a peptide tolerance of 8 ppm and a fragment tolerance of 0.1 AMU. Deuterated samples were then analyzed on an Exactive Plus EMR-Orbritrap (Thermo Fisher Scientific). A MATLAB based program, ExMS[39] was used for HXMS data processing. […] The level of deuteration of individual peptides was measured by comparing them to the ND sample. […] For each peptide, we compare the extent of deuteration as measured in the FD sample to the theoretical maximal deuteration (i.e., if no back-exchange occurs); the median extent of back-exchange in our datasets is only 15%.
Peptide plotting and calculations were performed in MATLAB. […] For comparing two different HXMS datasets, we plot the percent difference of each peptide, which is calculated by subtracting the percent deuteration of one sample from that of another, and plotted according to the color legend in stepwise increments (as in Fig. 5b). […]

[1] = Figure 1e, compound 25 µM, TM without compound 41.26
[2] = Figure 1e, compound 150 µM, TM without compound 41.26
[3] = Figure 1e, compound 750 µM, TM without compound 41.26
[4] = Figure 1e, compound 1500 µM, TM without compound 41.26

T3 sequence (P09874 whole entry, the tested form may be a part): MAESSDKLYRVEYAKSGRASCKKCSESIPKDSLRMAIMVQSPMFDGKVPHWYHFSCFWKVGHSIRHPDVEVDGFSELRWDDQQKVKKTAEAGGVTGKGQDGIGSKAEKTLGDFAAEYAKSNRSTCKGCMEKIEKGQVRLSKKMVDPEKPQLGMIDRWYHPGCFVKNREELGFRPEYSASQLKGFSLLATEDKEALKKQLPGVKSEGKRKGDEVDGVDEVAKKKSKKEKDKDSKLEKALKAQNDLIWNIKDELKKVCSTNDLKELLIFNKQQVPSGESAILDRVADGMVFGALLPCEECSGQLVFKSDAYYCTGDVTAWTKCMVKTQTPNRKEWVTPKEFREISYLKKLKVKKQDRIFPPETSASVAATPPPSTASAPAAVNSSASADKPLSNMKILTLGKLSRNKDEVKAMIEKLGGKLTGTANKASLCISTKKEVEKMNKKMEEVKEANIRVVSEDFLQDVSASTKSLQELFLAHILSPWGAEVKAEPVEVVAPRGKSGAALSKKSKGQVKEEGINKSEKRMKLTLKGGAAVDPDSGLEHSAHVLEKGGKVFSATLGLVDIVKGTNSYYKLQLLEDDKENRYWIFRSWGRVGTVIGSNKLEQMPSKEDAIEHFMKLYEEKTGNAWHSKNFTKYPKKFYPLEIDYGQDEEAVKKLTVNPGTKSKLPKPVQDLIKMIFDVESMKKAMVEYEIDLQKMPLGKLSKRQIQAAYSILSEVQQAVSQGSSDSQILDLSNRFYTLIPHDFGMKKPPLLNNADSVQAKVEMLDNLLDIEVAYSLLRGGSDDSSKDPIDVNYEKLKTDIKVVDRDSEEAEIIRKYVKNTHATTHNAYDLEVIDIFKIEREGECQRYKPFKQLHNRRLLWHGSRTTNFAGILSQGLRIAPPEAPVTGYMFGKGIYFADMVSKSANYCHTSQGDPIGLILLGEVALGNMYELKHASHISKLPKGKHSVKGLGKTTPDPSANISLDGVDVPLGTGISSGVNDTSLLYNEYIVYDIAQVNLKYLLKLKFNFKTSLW
T1 sequence (P09874 with tags, fused parts or gaps): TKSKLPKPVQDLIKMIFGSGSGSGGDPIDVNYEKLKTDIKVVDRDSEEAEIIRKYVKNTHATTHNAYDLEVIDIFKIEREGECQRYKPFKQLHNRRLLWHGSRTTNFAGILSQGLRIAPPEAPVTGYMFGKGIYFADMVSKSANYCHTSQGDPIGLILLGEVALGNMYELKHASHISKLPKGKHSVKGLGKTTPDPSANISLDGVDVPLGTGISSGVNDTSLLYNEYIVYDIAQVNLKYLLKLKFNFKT
T2 sequence (P09874 whole entry, the tested form may be a part): as the sequence (P09874 whole entry, the tested form may be a part) above

NC(=O)c1cccc(C2OC(COP(=O)(O)OP(=O)(O)OCC3OC(n4cnc5c(N)ncnc54)C(O)C3O)C(O)C2O)c1 (stereo not shown) [BAD, benzamide adenine dinucleotide]
TM (PARP-1 CAT ΔHD; [1]): 45.52 | TM (PARP-1 CAT ΔHD; [2]): 48.60 | TM (PARP-1 CAT ΔHD; [3]): 49.27 | TM (PARP-1 CAT ΔHD; [4]): 51.95 | TM (PARP-1 CAT ΔHD; Figure 1d, compound 50 µM, TM without compound 41.76): 47.02 | TM (PARP-1 CAT ΔHD; Figure 1d, compound 250 µM, TM without compound 41.76): 49.58 | TM (PARP-1 CAT ΔHD; Figure 1d, compound 1250 µM, TM without compound 41.76): 51.91 | TM increase (ΔTM) of CAT ΔHD (PARP-1 CAT ΔHD; at the highest concentration, 5 μM protein): 10 °C | increase in PARP-1 affinity for a DNA single-strand break (PARP-1 WT): 10 fold | HX in peptides localized to HD helices αB and αF (PARP-1; 10^2 s time point, PARP-1 bound to a DNA strand break): increased HX | HX of an ART active site peptide (a.a. 901–917) (PARP-1): only observed with PARP-1 in complex with DNA | HX in regions outside of the CAT (domain-domain and domain-DNA interfaces) (PARP-1; PARP-1 in complex with DNA, not in the absence of DNA): decrease in HX

NC(=O)c1ccccc1 [benzamide]
change of TM of CAT ΔHD (evidence of binding) (PARP-1 CAT ΔHD; 5 μM protein, various amounts of compound): increased the TM | TM (PARP-1 CAT ΔHD; [1]): 43.73 | TM (PARP-1 CAT ΔHD; [2]): 46.20 | TM (PARP-1 CAT ΔHD; [3]): 46.99 | TM (PARP-1 CAT ΔHD; [4]): 49.98 | increase in PARP-1 affinity for a DNA single-strand break (PARP-1 WT): no effect | HX of an ART active site peptide (a.a. 901–917) (PARP-1): decreased HX in the same ART peptide for both PARP-1 alone and PARP-1 in complex with DNA
